Results as given in ChEMBL document CHEMBL5291721, “A preclinical secondary pharmacology resource illuminates target-adverse drug reaction associations of marketed drugs” (Nat Commun, 2023).

Assays:
Androgen receptor = target: T1, Androgen receptor (Rattus norvegicus, UniProt P15207); format: functional
T1 sequence (P15207 whole entry): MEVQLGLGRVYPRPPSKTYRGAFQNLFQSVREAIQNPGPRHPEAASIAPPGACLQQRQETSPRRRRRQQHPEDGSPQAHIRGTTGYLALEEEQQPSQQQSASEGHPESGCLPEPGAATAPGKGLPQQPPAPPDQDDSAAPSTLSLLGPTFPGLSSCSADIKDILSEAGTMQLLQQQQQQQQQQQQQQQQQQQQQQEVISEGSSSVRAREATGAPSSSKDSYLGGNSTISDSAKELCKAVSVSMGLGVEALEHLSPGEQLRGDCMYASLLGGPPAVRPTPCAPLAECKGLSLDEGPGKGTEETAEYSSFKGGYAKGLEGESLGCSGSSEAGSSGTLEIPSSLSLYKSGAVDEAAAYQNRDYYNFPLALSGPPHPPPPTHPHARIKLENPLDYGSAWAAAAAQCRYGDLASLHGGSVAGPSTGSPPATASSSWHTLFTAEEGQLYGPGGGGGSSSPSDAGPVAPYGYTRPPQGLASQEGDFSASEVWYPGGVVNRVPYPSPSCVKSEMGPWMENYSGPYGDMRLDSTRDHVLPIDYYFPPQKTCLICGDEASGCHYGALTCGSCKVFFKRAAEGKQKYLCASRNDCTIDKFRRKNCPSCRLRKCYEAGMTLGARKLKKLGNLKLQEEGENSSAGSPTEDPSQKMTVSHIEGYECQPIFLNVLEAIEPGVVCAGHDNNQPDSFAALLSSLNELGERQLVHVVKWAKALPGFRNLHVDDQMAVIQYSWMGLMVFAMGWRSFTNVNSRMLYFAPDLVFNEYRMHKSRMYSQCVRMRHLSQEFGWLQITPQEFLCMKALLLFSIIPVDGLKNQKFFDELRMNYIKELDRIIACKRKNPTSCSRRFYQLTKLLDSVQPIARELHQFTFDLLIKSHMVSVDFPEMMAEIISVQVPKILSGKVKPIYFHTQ

[1] = target: Gamma-aminobutyric acid receptor subunit alpha-1/alpha-2/beta-2/gamma-2 (Homo sapiens, UniProt P14867+P18507+P47869+P47870); format: functional, cell-based
Chain of Gamma-aminobutyric acid receptor subunit alpha-1/alpha-2/beta-2/gamma-2 (P14867 whole entry): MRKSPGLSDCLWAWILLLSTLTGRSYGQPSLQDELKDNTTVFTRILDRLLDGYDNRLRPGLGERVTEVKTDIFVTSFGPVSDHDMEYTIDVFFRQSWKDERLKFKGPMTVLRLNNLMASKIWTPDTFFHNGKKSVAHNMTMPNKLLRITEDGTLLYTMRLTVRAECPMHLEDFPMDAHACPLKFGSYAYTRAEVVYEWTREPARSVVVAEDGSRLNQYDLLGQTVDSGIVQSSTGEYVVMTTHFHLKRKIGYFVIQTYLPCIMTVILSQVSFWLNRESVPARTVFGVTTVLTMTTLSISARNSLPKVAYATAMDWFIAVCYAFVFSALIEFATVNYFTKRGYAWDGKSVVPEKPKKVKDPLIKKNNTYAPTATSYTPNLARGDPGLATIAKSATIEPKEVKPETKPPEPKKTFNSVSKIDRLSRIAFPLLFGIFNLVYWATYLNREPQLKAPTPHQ
Chain of Gamma-aminobutyric acid receptor subunit alpha-1/alpha-2/beta-2/gamma-2 (P47870 whole entry): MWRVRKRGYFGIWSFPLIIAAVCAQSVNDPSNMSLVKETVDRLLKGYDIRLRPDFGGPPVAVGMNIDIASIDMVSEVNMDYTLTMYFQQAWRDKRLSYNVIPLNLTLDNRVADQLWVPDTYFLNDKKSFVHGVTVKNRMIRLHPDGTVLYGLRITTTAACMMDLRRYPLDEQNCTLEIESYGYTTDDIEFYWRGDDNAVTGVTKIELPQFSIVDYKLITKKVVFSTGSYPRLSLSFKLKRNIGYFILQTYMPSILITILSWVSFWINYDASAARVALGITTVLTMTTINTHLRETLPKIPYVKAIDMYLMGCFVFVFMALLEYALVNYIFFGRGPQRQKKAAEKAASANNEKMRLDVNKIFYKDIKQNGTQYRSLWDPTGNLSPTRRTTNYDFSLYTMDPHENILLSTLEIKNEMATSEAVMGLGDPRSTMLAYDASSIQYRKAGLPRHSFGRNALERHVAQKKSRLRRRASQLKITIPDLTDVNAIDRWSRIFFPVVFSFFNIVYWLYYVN
Chain of Gamma-aminobutyric acid receptor subunit alpha-1/alpha-2/beta-2/gamma-2 (P18507 whole entry): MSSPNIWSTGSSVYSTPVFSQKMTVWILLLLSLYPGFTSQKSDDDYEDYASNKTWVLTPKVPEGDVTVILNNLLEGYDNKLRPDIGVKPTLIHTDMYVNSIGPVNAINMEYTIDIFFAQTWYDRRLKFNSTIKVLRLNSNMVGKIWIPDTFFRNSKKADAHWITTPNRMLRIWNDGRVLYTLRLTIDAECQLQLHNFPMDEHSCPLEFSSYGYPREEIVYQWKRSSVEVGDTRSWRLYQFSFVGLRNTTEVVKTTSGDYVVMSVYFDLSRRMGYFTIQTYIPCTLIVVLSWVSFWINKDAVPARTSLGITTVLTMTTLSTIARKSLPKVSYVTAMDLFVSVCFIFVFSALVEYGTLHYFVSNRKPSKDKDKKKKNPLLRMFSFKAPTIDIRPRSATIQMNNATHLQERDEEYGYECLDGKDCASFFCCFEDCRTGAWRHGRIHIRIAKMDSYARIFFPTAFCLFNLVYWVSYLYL
Chain of Gamma-aminobutyric acid receptor subunit alpha-1/alpha-2/beta-2/gamma-2 (P47869 whole entry): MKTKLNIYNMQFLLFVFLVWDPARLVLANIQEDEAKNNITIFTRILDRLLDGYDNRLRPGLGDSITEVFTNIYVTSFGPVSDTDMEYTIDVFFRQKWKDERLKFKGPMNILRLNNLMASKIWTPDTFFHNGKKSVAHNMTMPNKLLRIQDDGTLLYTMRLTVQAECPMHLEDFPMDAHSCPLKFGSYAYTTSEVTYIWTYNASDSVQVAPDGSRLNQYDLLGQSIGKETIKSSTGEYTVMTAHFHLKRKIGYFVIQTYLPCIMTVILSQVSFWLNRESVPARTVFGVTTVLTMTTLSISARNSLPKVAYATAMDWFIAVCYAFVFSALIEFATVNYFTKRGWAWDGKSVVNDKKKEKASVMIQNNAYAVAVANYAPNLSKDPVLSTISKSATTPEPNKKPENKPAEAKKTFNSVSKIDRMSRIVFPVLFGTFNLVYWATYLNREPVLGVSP

[2] = target: 5-hydroxytryptamine receptor 2B (Homo sapiens, UniProt P41595)
Chain of 5-hydroxytryptamine receptor 2B (P41595 whole entry): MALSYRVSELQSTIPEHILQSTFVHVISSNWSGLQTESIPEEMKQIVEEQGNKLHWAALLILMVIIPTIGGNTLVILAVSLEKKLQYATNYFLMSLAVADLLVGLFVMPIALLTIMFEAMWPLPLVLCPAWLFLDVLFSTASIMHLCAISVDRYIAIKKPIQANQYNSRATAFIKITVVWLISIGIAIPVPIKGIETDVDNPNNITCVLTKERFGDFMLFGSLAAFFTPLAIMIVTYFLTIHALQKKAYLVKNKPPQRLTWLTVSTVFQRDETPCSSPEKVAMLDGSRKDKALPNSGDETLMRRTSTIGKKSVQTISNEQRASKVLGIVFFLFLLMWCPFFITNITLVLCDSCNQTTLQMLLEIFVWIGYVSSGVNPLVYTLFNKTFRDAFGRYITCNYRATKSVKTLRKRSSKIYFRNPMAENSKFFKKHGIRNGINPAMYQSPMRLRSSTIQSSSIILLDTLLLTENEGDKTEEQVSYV

[3] = target: Beta-3 adrenergic receptor (Homo sapiens, UniProt P13945)
Chain of Beta-3 adrenergic receptor (P13945 whole entry): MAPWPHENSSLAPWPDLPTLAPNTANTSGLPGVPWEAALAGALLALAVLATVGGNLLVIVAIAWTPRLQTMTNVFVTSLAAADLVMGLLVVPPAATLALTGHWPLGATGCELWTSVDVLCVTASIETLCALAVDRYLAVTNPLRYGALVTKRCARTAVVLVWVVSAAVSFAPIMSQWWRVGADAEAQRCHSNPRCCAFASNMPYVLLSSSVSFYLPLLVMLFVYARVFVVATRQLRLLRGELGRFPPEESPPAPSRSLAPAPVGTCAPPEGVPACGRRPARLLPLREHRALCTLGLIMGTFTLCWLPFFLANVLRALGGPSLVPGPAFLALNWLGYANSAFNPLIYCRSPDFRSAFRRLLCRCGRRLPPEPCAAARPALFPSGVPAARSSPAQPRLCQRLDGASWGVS

Progesterone receptor = target: T2, Progesterone receptor (Homo sapiens, UniProt P06401)
T2 sequence (P06401 whole entry): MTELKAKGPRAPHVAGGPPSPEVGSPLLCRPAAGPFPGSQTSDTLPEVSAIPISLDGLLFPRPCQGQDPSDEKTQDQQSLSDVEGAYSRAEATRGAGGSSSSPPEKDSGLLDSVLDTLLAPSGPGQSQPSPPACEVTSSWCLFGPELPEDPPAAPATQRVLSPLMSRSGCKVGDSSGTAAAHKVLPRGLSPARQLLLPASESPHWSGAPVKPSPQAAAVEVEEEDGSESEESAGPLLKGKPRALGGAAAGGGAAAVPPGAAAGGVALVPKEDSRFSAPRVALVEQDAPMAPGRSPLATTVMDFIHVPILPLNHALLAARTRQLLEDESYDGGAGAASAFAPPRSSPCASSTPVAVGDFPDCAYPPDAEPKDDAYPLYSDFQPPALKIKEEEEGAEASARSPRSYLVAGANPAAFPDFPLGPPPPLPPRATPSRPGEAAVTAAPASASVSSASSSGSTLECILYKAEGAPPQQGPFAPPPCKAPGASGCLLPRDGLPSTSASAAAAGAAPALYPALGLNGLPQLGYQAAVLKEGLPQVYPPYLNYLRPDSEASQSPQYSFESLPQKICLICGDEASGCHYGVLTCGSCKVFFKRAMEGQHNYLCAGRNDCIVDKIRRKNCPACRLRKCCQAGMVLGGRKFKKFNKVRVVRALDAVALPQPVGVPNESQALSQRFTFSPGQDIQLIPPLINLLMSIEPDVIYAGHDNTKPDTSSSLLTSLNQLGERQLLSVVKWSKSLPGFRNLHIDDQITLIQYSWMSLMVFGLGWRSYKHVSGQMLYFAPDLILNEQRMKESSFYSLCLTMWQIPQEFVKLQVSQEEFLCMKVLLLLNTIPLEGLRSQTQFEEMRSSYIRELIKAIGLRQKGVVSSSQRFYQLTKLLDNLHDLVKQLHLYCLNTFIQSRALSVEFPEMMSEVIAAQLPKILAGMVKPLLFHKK

Glucagon receptor = Glucagon receptor (Homo sapiens, UniProt P47871)
Chain of Glucagon receptor (P47871 whole entry): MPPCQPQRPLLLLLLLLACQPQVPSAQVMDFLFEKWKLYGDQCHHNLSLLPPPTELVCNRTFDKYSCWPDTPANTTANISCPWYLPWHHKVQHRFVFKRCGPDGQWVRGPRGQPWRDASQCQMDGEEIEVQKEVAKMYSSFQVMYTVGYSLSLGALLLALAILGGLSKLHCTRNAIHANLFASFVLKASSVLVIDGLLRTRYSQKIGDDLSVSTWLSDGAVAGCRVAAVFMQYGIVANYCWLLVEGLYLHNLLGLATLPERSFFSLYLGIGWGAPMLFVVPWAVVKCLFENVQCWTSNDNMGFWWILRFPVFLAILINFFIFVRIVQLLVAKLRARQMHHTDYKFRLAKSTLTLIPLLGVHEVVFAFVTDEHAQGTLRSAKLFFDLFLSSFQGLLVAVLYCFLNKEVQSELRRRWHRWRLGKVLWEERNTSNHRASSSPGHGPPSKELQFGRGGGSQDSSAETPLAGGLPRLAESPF

[4] = target: 3',5'-cyclic-AMP phosphodiesterase 4A (Homo sapiens, UniProt P27815); format: functional
Chain of 3',5'-cyclic-AMP phosphodiesterase 4A (P27815 whole entry): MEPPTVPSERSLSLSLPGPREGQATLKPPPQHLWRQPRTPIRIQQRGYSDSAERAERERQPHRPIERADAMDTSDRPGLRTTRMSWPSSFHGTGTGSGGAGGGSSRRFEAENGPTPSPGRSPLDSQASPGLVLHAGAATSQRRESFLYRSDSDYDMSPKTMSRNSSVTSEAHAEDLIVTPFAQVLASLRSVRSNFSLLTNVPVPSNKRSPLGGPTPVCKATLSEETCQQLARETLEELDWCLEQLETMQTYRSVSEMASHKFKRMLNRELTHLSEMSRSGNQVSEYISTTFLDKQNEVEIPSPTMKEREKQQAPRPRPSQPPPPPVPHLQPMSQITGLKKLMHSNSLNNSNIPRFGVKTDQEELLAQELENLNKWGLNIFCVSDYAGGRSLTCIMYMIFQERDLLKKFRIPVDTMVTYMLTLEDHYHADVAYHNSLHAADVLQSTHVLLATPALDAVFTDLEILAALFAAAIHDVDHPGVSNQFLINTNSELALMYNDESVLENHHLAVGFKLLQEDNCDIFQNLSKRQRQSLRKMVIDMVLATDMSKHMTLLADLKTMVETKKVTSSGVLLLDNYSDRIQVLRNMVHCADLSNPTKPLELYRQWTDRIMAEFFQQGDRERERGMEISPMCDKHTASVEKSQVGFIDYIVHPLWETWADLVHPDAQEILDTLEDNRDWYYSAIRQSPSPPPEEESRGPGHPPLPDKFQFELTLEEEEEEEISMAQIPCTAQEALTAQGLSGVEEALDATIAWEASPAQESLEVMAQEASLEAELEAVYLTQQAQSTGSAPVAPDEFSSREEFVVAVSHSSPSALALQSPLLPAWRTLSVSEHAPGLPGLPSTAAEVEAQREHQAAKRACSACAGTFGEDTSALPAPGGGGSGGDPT

[5] = target: T3, Alpha-1A adrenergic receptor (Homo sapiens, UniProt P35348); format: functional, cell-based
T3 sequence (P35348 whole entry): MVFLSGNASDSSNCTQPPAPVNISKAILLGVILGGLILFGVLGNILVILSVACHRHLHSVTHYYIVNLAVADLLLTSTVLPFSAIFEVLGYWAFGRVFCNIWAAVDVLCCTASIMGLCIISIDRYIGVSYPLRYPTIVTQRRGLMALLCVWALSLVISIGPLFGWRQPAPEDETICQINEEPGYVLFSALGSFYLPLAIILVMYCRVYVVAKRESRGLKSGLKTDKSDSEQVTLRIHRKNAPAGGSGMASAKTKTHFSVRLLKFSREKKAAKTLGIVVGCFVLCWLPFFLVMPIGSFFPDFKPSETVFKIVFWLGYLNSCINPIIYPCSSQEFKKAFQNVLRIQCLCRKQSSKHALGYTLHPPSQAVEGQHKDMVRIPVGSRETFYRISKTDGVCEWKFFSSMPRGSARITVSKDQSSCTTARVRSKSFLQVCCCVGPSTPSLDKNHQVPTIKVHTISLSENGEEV

[6] = target: Beta-1 adrenergic receptor (Homo sapiens, UniProt P08588); format: functional, cell-based
Chain of Beta-1 adrenergic receptor (P08588 whole entry): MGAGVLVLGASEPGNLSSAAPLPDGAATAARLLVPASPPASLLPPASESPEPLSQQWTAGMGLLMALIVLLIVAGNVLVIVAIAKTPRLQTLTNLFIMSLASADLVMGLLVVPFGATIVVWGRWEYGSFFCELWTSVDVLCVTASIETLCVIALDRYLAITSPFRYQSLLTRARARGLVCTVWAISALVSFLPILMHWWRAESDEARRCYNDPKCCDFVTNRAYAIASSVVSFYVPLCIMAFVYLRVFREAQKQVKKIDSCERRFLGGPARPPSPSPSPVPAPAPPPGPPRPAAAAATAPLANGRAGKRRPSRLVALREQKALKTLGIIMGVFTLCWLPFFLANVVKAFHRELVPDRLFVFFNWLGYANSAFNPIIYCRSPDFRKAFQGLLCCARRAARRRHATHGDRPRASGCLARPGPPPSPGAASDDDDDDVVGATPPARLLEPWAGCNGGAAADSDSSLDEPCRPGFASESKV
Also: assay procedure not described here.

O=C1C(O)=C([C@H]2CC[C@H](c3ccc(Cl)cc3)CC2)C(=O)c2ccccc21 [ATOVAQUONE]
AC50 (Androgen receptor): > 30 µM

CC(CC1c2ccccc2CCc2ccccc21)CN(C)C (stereo unspecified) [BUTRIPTYLINE]
AC50 [1]: > 30 µM

Clc1ccccc1C(c1ccccc1)(c1ccccc1)n1ccnc1 [CLOTRIMAZOLE]
AC50 [2]: > 10 µM
AC50 [3]: 8.78 µM

COc1ccc2c3c1O[C@H]1[C@@H](O)CC[C@H]4[C@@H](C2)N(C)CC[C@@]341 [DIHYDROCODEINE]
AC50 [1]: > 30 µM

Fc1ccc(C(c2ccccc2)(c2ccccc2F)n2ccnc2)cc1 (stereo unspecified) [FLUTRIMAZOLE]
AC50 (Androgen receptor): > 30 µM

Cc1c(OCC(F)(F)F)ccnc1C[S+]([O-])c1nc2ccccc2[nH]1 (stereo unspecified) [LANSOPRAZOLE]
AC50 (Progesterone receptor): > 30 µM
AC50 [2]: > 10 µM
AC50 (Glucagon receptor): > 30 µM
AC50 [3]: > 30 µM

CO[C@]12C[C@@H](COC(=O)c3cncc(Br)c3)CN(C)[C@@H]1Cc1cn(C)c3cccc2c13 [NICERGOLINE]
AC50 [4]: > 30 µM
AC50 [5]: 21.8 µM

NC(=O)CN1CC(O)CC1=O (stereo unspecified) [OXIRACETAM]
AC50 [1]: > 30 µM
AC50 (Androgen receptor): > 30 µM

C[C@@H]1O[C@@H](O[C@@H]2C=C3CC[C@@H]4[C@H](CC[C@]5(C)[C@@H](c6ccc(=O)oc6)CC[C@]45O)[C@@]3(C)CC2)[C@H](O)[C@H](O)[C@H]1O [PROSCILLARIDIN]
AC50 [6]: > 30 µM
AC50 (Androgen receptor): > 30 µM

CC/C(=C(\c1ccccc1)c1ccc(OCCN(C)C)cc1)c1ccccc1 [TAMOXIFEN]
AC50 [2]: 0.896 µM
AC50 [3]: 6.61 µM

C#C[C@]1(O)CC[C@H]2[C@@H]3[C@H](C)CC4=C(CCC(=O)C4)[C@H]3CC[C@@]21C [TIBOLONE]
AC50 [6]: > 30 µM

COc1cccc(C2(O)CCCCC2CN(C)C)c1 (stereo unspecified) [TRAMADOL]
AC50 (Progesterone receptor): > 30 µM
AC50 [2]: > 10 µM
AC50 (Glucagon receptor): > 30 µM
AC50 [3]: > 30 µM

Cc1nnc2n1-c1ccc(Cl)cc1C(c1ccccc1Cl)=NC2 [TRIAZOLAM]
AC50 (Progesterone receptor): > 30 µM

THIMEROSAL
AC50 [4]: > 30 µM
AC50 [5]: > 30 µM
